From patent US20230301300A1, “HERBICIDAL COMPOSITIONS” (SYNGENTA CROP PROTECTION AG, priority 2020, published 2023)

What was measured:
Format in all cases: in vivo
[1] = tested on: Ipomoea hederacea (IPOHE); experiment: B1 Post-Emergence Efficacy - Test 1; settings: 1000 g/ha, after 13 days, five point scale
Protocol: (§1) Seeds of a variety of test species are sown in standard soil in pots:— Solanum nigrum (SOLNI), Amaranthus retoflexus (AMARE), Setaria faberi (SETFA), Alopecurus myosuroides (ALOMY), Echinochloa crus-galli (ECHCG), Ipomoea hederacea (IPOHE), Lolium perenne (LOLPE). After 8 days cultivation (post-emergence) under controlled conditions in a glasshouse (at 24/16° C., day/night; 14 hours light; 65% humidity), the plants are sprayed with an aqueous spray solution derived from the formulation of the technical active ingredient in acetone/water (50:50) solution containing 0.5% Tween 20 (polyoxyethylene sorbitan monolaurate, CAS RN 9005-64-5). Compounds are applied at 1000 g/ha. The test plants are then grown in a glasshouse under controlled conditions in a glasshouse (at 24/16° C., day/night; 14 hours light; 65% humidity) and watered twice daily. After 13 days, the test is evaluated for the percentage damage caused to the plant. The biological activities are assessed on a five point scale (5=80-100%; 4=60-79%; 3=40-59%; 2=20-39%; 1=0-19%). A blank value in the table is indicative that the compound was not tested on that species.

Lolium perenne (LOLPE) = experiment: B1 Post-Emergence Efficacy - Test 1; settings: 1000 g/ha, after 13 days, five point scale
Protocol: as §1

[2] = tested on: Amaranthus retoflexus (AMARE); experiment: B1 Post-Emergence Efficacy - Test 1; settings: 1000 g/ha, after 13 days, five point scale
Protocol: as §1

Setaria faberi (SETFA) [3] = experiment: B1 Post-Emergence Efficacy - Test 1; settings: 1000 g/ha, after 13 days, five point scale
Protocol: as §1

[4] = tested on: Echinochloa crus-galli (ECHCG); experiment: B1 Post-Emergence Efficacy - Test 1; settings: 1000 g/ha, after 13 days, five point scale
Protocol: as §1

Solanum nigrum (SOLNI) = experiment: B1 Post-Emergence Efficacy - Test 1; settings: 1000 g/ha, after 13 days, five point scale
Protocol: as §1

[5] = tested on: Ipomoea hederacea (IPOHE); experiment: B3 Herbicidal Efficacy of Compounds of Formula (II), post-emergence; settings: 312 h, application post-emergence, after 13 days, 100=total damage, 0=no damage, read-out: percentage phytotoxicity to the plant, IPOHE
Protocol: (§2) Seeds of a variety of test species [Ipomoea hederacea (IPOHE); Zea mays (ZEAMX); Echinochloa crus-galli (ECHCG); Setaria faberi (SETFA); Abutilon theophrasti (ABUTH); Amaranthus retroflexus (AMARE)] were sown in standard sterilised soil in pots. After cultivation for one day (pre-emergence) or after 8 days cultivation (post-emergence) under controlled conditions in a glasshouse (at 24/16° C., day/night; 14 hours light; 65% humidity), the plants were sprayed with an aqueous spray solution derived from the formulation of the technical active ingredient in acetone/water (50:50) solution containing 0.5% Tween 20 (polyoxyethelyene sorbitan monolaurate, CAS RN 9005-64-5), subsequently diluted in water, and sprayed to give the stated application rate. The test plants were then grown under controlled conditions in a glasshouse (at 24/16° C., day/night; 14 hours light; 65% humidity) and watered twice daily. After 13 days for pre and post-emergence, the test was evaluated visually for percentage phytotoxicity to the plant (where 100=total damage to plant; 0=no damage to plant).

[6] = tested on: Abutilon theophrasti (ABUTH); experiment: as above; settings: 312 h, application post-emergence, after 13 days, 100=total damage, 0=no damage, read-out: percentage phytotoxicity to the plant, ABUTH
Protocol: as §2

[7] = tested on: Amaranthus retroflexus (AMARE); experiment: as above; settings: 312 h, application post-emergence, after 13 days, 100=total damage, 0=no damage, read-out: percentage phytotoxicity to the plant, AMARE
Protocol: as §2

Zea mays (ZEAMX) [8] = experiment: as above; settings: 312 h, application post-emergence, after 13 days, 100=total damage, 0=no damage, read-out: percentage phytotoxicity to the plant, ZEAMX
Protocol: as §2

Setaria faberi (SETFA) [9] = experiment: as above; settings: 312 h, application post-emergence, after 13 days, 100=total damage, 0=no damage, read-out: percentage phytotoxicity to the plant, SETFA
Protocol: as §2

[10] = tested on: Echinochloa crus-galli (ECHCG); experiment: as above; settings: 312 h, application post-emergence, after 13 days, 100=total damage, 0=no damage, read-out: percentage phytotoxicity to the plant, ECHCG
Protocol: as §2

[11] = tested on: Ipomoea hederacea (IPOHE); experiment: B3 Herbicidal Efficacy of Compounds of Formula (II), pre-emergence; settings: 312 h, application pre-emergence, after 13 days, 100=total damage, 0=no damage, read-out: percentage phytotoxicity to the plant, IPOHE
Protocol: as §2

[12] = tested on: Abutilon theophrasti (ABUTH); experiment: as above; settings: 312 h, application pre-emergence, after 13 days, 100=total damage, 0=no damage, read-out: percentage phytotoxicity to the plant, ABUTH
Protocol: as §2

[13] = tested on: Amaranthus retroflexus (AMARE); experiment: as above; settings: 312 h, application pre-emergence, after 13 days, 100=total damage, 0=no damage, read-out: percentage phytotoxicity to the plant, AMARE
Protocol: as §2

Zea mays (ZEAMX) [14] = experiment: as above; settings: 312 h, application pre-emergence, after 13 days, 100=total damage, 0=no damage, read-out: percentage phytotoxicity to the plant, ZEAMX
Protocol: as §2

Setaria faberi (SETFA) [15] = experiment: as above; settings: 312 h, application pre-emergence, after 13 days, 100=total damage, 0=no damage, read-out: percentage phytotoxicity to the plant, SETFA
Protocol: as §2

[16] = tested on: Echinochloa crus-galli (ECHCG); experiment: as above; settings: 312 h, application pre-emergence, after 13 days, 100=total damage, 0=no damage, read-out: percentage phytotoxicity to the plant, ECHCG
Protocol: as §2

| SMILES | percentage damage caused to the plant, IPOHE [1] | percentage damage caused to the plant, LOLPE (Lolium perenne (LOLPE)) | percentage damage caused to the plant, AMARE [2] | percentage damage caused to the plant, SETFA (Setaria faberi (SETFA) [3]) | percentage damage caused to the plant, ECHCG [4] | percentage damage caused to the plant, SOLNI (Solanum nigrum (SOLNI)) | pest or weed control at 250 g/ha [5] [%] | pest or weed control at 250 g/ha [6] [%] | pest or weed control at 250 g/ha [7] [%] | percent crop injury (phytotoxicity to maize) at 250 g/ha (Zea mays (ZEAMX) [8]) [%] | pest or weed control at 250 g/ha (Setaria faberi (SETFA) [9]) [%] | pest or weed control at 250 g/ha [10] [%] | pest or weed control at 250 g/ha [11] [%] | pest or weed control at 250 g/ha [12] [%] | pest or weed control at 250 g/ha [13] [%] | plant injury at 250 g/ha (Zea mays (ZEAMX) [14]) [%] | pest or weed control at 250 g/ha (Setaria faberi (SETFA) [15]) [%] | pest or weed control at 250 g/ha [16] [%] |
| --- | --- | --- | --- | --- | --- | --- | --- | --- | --- | --- | --- | --- | --- | --- | --- | --- | --- | --- |
| Cc1nn(C)c(=O)c(-c2c(F)ccc(Cl)c2CCc2ccccc2)c1O [Compound 1.001, 4-(3-chloro-6-fluoro-2-phenethyl-phenyl)-5-hydroxy-2,6-dimethyl-pyridazin-3-one] | 5 (5=80-100%) | 5 (5=80-100%) | 5 (5=80-100%) | 5 (5=80-100%) | 5 (5=80-100%) | 5 (5=80-100%) |  |  |  |  |  |  |  |  |  |  |  |  |
| Cc1nn(C)c(=O)c(-c2c(F)ccc(Cl)c2/C=C/c2ccccc2)c1O [Compound 1.002, 4-[3-chloro-6-fluoro-2-[(E)-styryl]phenyl]-5-hydroxy-2,6-dimethyl-pyridazin-3-one] | 5 (5=80-100%) | 4 (4=60-79%) | 4 (4=60-79%) | 3 (3=40-59%) | 4 (4=60-79%) | 5 (5=80-100%) |  |  |  |  |  |  |  |  |  |  |  |  |
| Cc1nn(C)c(=O)c(-c2c(F)ccc(Cl)c2CCc2ccc(Cl)cc2)c1O [Compound 1.012, 4-[3-chloro-2-[2-(4-chlorophenyl)ethyl]-6-fluoro-phenyl]-5-hydroxy-2,6-dimethyl-pyridazin-3-one] | 5 (5=80-100%) | 5 (5=80-100%) | 5 (5=80-100%) | 5 (5=80-100%) | 5 (5=80-100%) | 5 (5=80-100%) |  |  |  |  |  |  |  |  |  |  |  |  |
| Cc1nn(C)c(=O)c(-c2c(F)ccc(Cl)c2CCc2ccc(C(F)(F)F)cc2)c1O [Compound 1.018, 4-[3-chloro-6-fluoro-2-[2-[4-(trifluoromethyl)phenyl]ethyl]phenyl]-5-hydroxy-2,6-dimethyl-pyridazin-3-one] | 5 (5=80-100%) | 5 (5=80-100%) | 5 (5=80-100%) | 5 (5=80-100%) | 5 (5=80-100%) | 5 (5=80-100%) |  |  |  |  |  |  |  |  |  |  |  |  |
| Cc1nn(C)c(=O)c(-c2c(F)ccc(Cl)c2CCc2cccnc2)c1O [Compound 1.054, 4-[3-chloro-6-fluoro-2-[2-(3-pyridyl)ethyl]phenyl]-5-hydroxy-2,6-dimethyl-pyridazin-3-one] | 5 (5=80-100%) | 5 (5=80-100%) | 5 (5=80-100%) | 5 (5=80-100%) | 5 (5=80-100%) | 5 (5=80-100%) |  |  |  |  |  |  |  |  |  |  |  |  |
| Cc1nn(C)c(=O)c(-c2c(F)ccc(Cl)c2CCc2ccc(F)c(F)c2)c1O [Compound 1.060, 4-[3-chloro-2-[2-(3,4-difluorophenyl)ethyl]-6-fluoro-phenyl]-5-hydroxy-2,6-dimethyl-pyridazin-3-one] | 5 (5=80-100%) | 5 (5=80-100%) | 5 (5=80-100%) | 5 (5=80-100%) | 5 (5=80-100%) | 5 (5=80-100%) |  |  |  |  |  |  |  |  |  |  |  |  |
| Cc1nn(C)c(=O)c(-c2c(F)ccc(Cl)c2CCc2ccc(C(F)(F)F)cc2)c1OC(=O)C(C)C [Compound 1.095, [5-[3-chloro-6-fluoro-2-[2-[4-(trifluoromethyl)phenyl]ethyl]phenyl]-1,3-dimethyl-6-oxo-pyridazin-4-yl] 2-methylpropanoate] | 5 (5=80-100%) | 5 (5=80-100%) | 5 (5=80-100%) |  | 5 (5=80-100%) | 5 (5=80-100%) |  |  |  |  |  |  |  |  |  |  |  |  |
| Cc1ccc(CCc2c(Cl)ccc(F)c2-c2c(OC(=O)C(C)C)c(C)nn(C)c2=O)cc1 [Compound 1.149, [5-[3-chloro-6-fluoro-2-[2-(p-tolyl)ethyl]phenyl]-1,3-dimethyl-6-oxo-pyridazin-4-yl] 2-methylpropanoate] | 5 (5=80-100%) | 5 (5=80-100%) | 5 (5=80-100%) | 5 (5=80-100%) | 5 (5=80-100%) | 5 (5=80-100%) |  |  |  |  |  |  |  |  |  |  |  |  |
| CN1C[C@H](c2cc(C(F)(F)F)n(C)n2)[C@@H](C(=O)Nc2cccc(F)c2C(C)(F)F)C1=O [Compound 2.12, (3S,4R)-N-[2-(1,1-difluoroethyl)-3-fluoro-phenyl]-1-methyl-4-[1-methyl-5-(trifluoromethyl)pyrazol-3-yl]-2-oxo-pyrrolidine-3-carboxamide] |  |  |  |  |  |  | 50 | 0 | 0 | 80 | 90 | 90 | 70 | 0 | 0 | 90 | 90 | 90 |
